This note sets out measurements from the METLIN SMRT retention time set (Domingo-Almenara et al. 2019).

A short description of the series: gradient 5% acetonitrile 3 min, to 50% in 2 min, to 85% in 15 min, held 3 min, 100 µL/min. The settings on record: column: Zorbax Extend-C18 2.1 x 50 mm; eluents: water / acetonitrile, 0.1% formic acid. A digest of the protocol:
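Mixtures of ~100 pure standards were chromatographed on a Zorbax Extend-C18 column (2.1 × 50 mm, 1.8 μm) at 100 μL/min using water and acetonitrile, each with 0.1% formic acid. Detection used a quadrupole time-of-flight mass spectrometer in positive and negative ionization mode, and data collection spanned 3 months. Retention time was obtained from adduct peaks picked computationally and each checked manually.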
Take `Cc1ccc(S(=O)(=O)N2CCCC2c2nc(-c3ccc(Cl)cc3)no2)cc1C` (stereo not given): the RP-LC retention time is 1300 s. For `COc1ccc(C(=O)Nc2cnc(N3CCCC3)nc2)cc1` the value was 691 s; for `CC(C)NC(=O)c1ccc(OCC2CCCN(C(=O)c3ccc(F)c(Cl)c3)C2)cc1` (stereo not given), 915 s.

As to `Cc1oc(C2CCN(S(=O)(=O)c3ccccc3F)CC2)nc1C(=O)N1CCOCC1`, the RP-LC retention time stood at 776 s. `COCc1nc2cccnc2n1C1CCN(C(=O)NCCc2ccccc2)CC1` gave an RP-LC retention time of 692 s. `Cc1ccc(-c2coc(-c3ccc(NC(=O)c4ccco4)cc3)n2)c(C)c1` registered an RP-LC retention time of 1170 s.

Regarding `Cc1cc(N2CCN(C)CC2)nc2ccc(NC(=S)NCc3cccs3)cc12`, the RP-LC retention time was found to be 576 s. `COc1ccc(-c2ccnn2-c2ccc(SCc3cccc(C)c3)nn2)cc1` came in with an RP-LC retention time of 1400 s. Take `CN1c2cc(F)ccc2C(=O)NC12CCN(C(=O)c1cccc(Cl)c1)CC2`: the RP-LC retention time is 800 s. To `COCCCN1CCC(NC(=O)c2cc(Cl)c(N)c3c2OCC3)CC1` belongs 641 s; to `Cc1ccc(NC(=O)C2CCCN(c3ncnc4c3nc3n4CCCCC3)C2)c(C)c1` (stereo not given), 824 s. For `CC(C)c1ccc(N2C(=O)C3N=NN(Cc4nc(-c5cccc(Br)c5)no4)C3C2=O)cc1` (stereo not given) the value was 1170 s; for `CCCc1c(C(=O)O)nnn1-c1ccccc1F`, 705 s; for `Cc1noc([C@H]2CCN(C3CCSCC3)C[C@H]2NC(=O)C2CC2)n1`, 576 s. Take `CCc1ccc(Nc2nc(C(=O)NCCC(C)C)nc3ccccc23)cc1`: the RP-LC retention time is 964 s. To `COc1cccc(-c2cc(C(N)=O)c3ccccc3n2)c1` belongs 760 s; to `Cc1ccc(CNC(=O)C2CCN(S(=O)(=O)c3cc(C(=O)N(C)C)cs3)CC2)o1`, 708 s. For `C[C@@H]1CN(C(=O)Cc2cccnc2)C[C@H]1c1nc(-c2ccncc2)no1` the value was 568 s; for `O=c1c2sccc2n(Cc2nc(-c3ccccc3)no2)c(=O)n1-c1ccccc1`, 932 s. As to `Cc1cc(NC(=O)c2cccc(N3C(=O)CCC3=O)c2)n(-c2nc3ccc(F)cc3s2)n1`, the RP-LC retention time was 706 s. To `CCCC(=O)Nc1nc(-c2ccc(OC)cc2)c(C)s1` belongs 956 s. To `Cc1ccc2c(c1)N(S(C)(=O)=O)CCC(C(=O)Nc1ccccc1)O2` (stereo not given) belongs 892 s. Consider `CC(C)CC(=O)Nc1ccc(-n2cnc(C(=O)N3CCSCC3)c2)nc1`, for which the RP-LC retention time worked out at 709 s. In turn, `CCOC(=O)c1c(C)[nH]c(C(=O)N2CCC(CC(=O)NCc3ccc(OC)cc3)CC2)c1C` had an RP-LC retention time of 694 s. In turn, `CCn1c(=O)sc2cc(S(=O)(=O)N3CCC(C(=O)NC4CCCC4)CC3)ccc21` showed an RP-LC retention time of 845 s. To `CCn1cc(CN2C[C@@H](COC)[C@H](c3ccccn3)C2)c(C)n1` belongs 573 s; to `O=C(NCc1ccccc1)C1CCCN(c2ncnc3c2oc2ccccc23)C1` (stereo not given), 754 s; to `CCc1ccc(CN2CCC3(CC2)CC(O)(COC)CCO3)cc1` (stereo not given), 575 s. Compound `CN(CCc1noc(-c2ccc(C(=O)N3CCCCC3)cc2)n1)C(=O)C1CC1` gave an RP-LC retention time of 742 s.

Compound `CCOc1ccc(-c2noc(Cn3c(=O)n(-c4ccccc4)c(=O)c4sccc43)n2)cc1OC` had an RP-LC retention time of 910 s. To `CC(C)(C)c1csc(-c2csc(S(=O)(=O)Nc3cccc(Cl)c3F)c2)n1` belongs 1330 s. To `O=C(NCC1CCN(c2ncccn2)CC1)C(=O)NCC(F)(F)F` belongs 626 s; to `COc1ccc(NC(=O)C2CCCN2S(=O)(=O)c2ccc3c(c2)N(C(C)=O)CCO3)cc1` (stereo not given), 762 s; to `O=C(NC1CCCC1)c1nc2ccccn2c1-c1ccc(F)cc1`, 826 s. To `Cc1ccc(S(=O)(=O)N2C[C@H](F)C[C@@H]2C(=O)N2CCOCC2)cc1Cl` belongs 750 s; to `COCCn1cc(C(=O)N2CCCc3ccccc32)c2nn(-c3ccccc3)c(=O)c-2c1`, 943 s; to `COc1ccc(CNc2c(-c3nc(C4CC4)no3)cnc3nc(C)ccc23)cc1OC`, 683 s. In turn, `CCCN1CCN(S(=O)(=O)c2cc(-c3nnc(C(C)C)o3)co2)CC1` returned an RP-LC retention time of 618 s. Regarding `Cc1ccc(C)c(N2CCN(c3ccnc(SCC(=O)Nc4cc(F)ccc4C)n3)CC2)c1`, the RP-LC retention time turned out to be 1040 s.

On to `Cc1nc(N2CCCC2)c2c(C(=O)Nc3ccc(Cl)cc3)c(C)oc2n1`, for which the RP-LC retention time is 848 s.

As to `OC(c1ccncc1)c1cccc(Cl)c1F` (stereo not given), the RP-LC retention time was determined as 586 s. The compound `O=C(NC1CCCCC1)c1c2c(nc3ccccc13)CCC2` returned an RP-LC retention time of 690 s. On to `Cc1cccc(N(C)C(=O)CCS(=O)(=O)c2ccc3c(c2)CC(C)N3C(=O)C2CC2)c1` (stereo not given), for which the RP-LC retention time worked out at 807 s. Regarding `O=C(CN1C(=O)CCS(=O)(=O)c2ccccc21)Nc1ccc(Br)cc1`, the RP-LC retention time came out at 774 s. `CCCCNC(=O)Cn1nc(C)c2nn(-c3ccc(Cl)cc3)c(-n3cccc3)c2c1=O`: the RP-LC retention time amounted to 1020 s. In turn, `COc1ccccc1CN1CC(F)(F)C[C@H]1COc1ccncc1` yielded an RP-LC retention time of 623 s. Compound `CCOc1ccc(-c2nc(Cc3noc(-c4ccccc4)n3)c(C)o2)cc1` gave an RP-LC retention time of 1200 s.

In turn, `CC1CC(=O)c2cnc(N3CCN(Cc4ccc5c(c4)OCO5)CC3)nc2C1` (stereo not given) had an RP-LC retention time of 632 s. The compound `COc1ccc(NC(=O)Cc2nnc(-c3ccc4ncccc4c3)o2)cc1Cl` registered an RP-LC retention time of 728 s.

On to `O=c1cccnn1CCNS(=O)(=O)c1ccc(F)c(Cl)c1`, for which the RP-LC retention time was 665 s.

`Cc1cccc(S(=O)(=O)N2C[C@@H](F)C[C@H]2C(=O)N2CCc3ccccc3C2)c1` returned an RP-LC retention time of 906 s. For `O=C(CSc1nc(CC(=O)N2CCN(c3ccccn3)CC2)cs1)c1cccs1` the value was 567 s; for `O=C1CCC2(CCN1)CCN(C(=O)C1CCCCC1)CC2`, 669 s; for `Cc1cc2nn(CC(=O)Nc3ccccc3)c(=O)n2c(-c2ccc(F)cc2)n1`, 800 s.

As for `CN1CCCn2cc(S(=O)(=O)Nc3ccc4c(c3)OCCO4)cc2C1=O`, the RP-LC retention time came to 655 s. `Cc1cc(C)n(CCNC(=O)c2cnccn2)n1` came in with an RP-LC retention time of 566 s.

`COc1ccc(CNC(=O)C2CC(=O)N(CCc3c[nH]c4ccc(Cl)cc34)C2)cc1` (stereo not given) displayed an RP-LC retention time of 834 s. For `CCS(=O)(=O)N1CCCc2cc(C(=O)Nc3ccccc3Br)ccc21` the value was 986 s; for `Cc1ccc(-c2ccc(OCC(=O)NC(C)(C)C)cc2)cc1`, 1100 s. `c1ccc(N2CCN(Cc3nc(-c4ccc(N5CCSCC5)nc4)no3)CC2)nc1`: the RP-LC retention time was 625 s. For `Cc1ccc2c(c1)OCC(=O)N2Cc1nc(-c2ccccc2C)no1` the value was 1120 s; for `CCN1C(=O)c2cccnc2Sc2cc(CNC(=O)c3c(OC)cccc3OC)ccc21`, 784 s. To `CC(C)NC(=O)c1ccc2cnn(C)c2c1` belongs 667 s. For `CN1C(=O)c2cc(C(=O)NCCC3=CCCCC3)nn2CC1(C)C(=O)NCc1ccccc1` (stereo not given) the value was 853 s; for `Cn1cc(C2=CCN(S(=O)(=O)c3ccccc3F)CC2)c2cccnc21`, 944 s; for `COc1cccc(CNC(=O)NCCc2cn(C)c3ncccc23)c1`, 642 s. `CC1(C(=O)NCc2ccccc2)CN(S(C)(=O)=O)CC(=O)N1Cc1cccc(Br)c1` (stereo not given) had an RP-LC retention time of 815 s. Compound `COC(=O)c1sccc1NC(=O)N1CCCC1c1nc(-c2cccc(Cl)c2)no1` (stereo not given) displayed an RP-LC retention time of 1220 s. The compound `CCOC(=O)c1ccc(NC(=O)Cn2cnc3ccccc32)cc1` returned an RP-LC retention time of 594 s. For `CCc1ccc(CN2C(=O)c3c(C(=O)OC)ncn3CC2(C)C(=O)NCc2ccccc2)cc1` (stereo not given) the value was 801 s; for `CC1(C)CC(=O)c2cnc(N3CCN(c4ccccn4)CC3)nc2C1`, 621 s; for `c1ccc(-c2nnc(-c3nc(NCCc4cccs4)c4ccccc4n3)o2)cc1`, 1040 s. For `O=C(Nc1cccn2c(C3CCC3)nnc12)c1cc2ccccc2[nH]1` the value was 818 s; for `CC1Cc2cc(-c3cc(CC(=O)NCc4ccco4)no3)ccc2O1` (stereo not given), 616 s; for `Cn1cc(C(=O)NC2CCCCC2)c2nn(-c3ccccc3)c(=O)c-2c1`, 678 s. For the compound `Cc1nc(-c2ccccc2)sc1C(=O)NC1CC1`, the RP-LC retention time stood at 799 s.

`Cc1ccc(Cn2cc(CCC(=O)N3CCN(c4ccccn4)CC3)c3ccccc32)cc1`: the RP-LC retention time stood at 777 s. To `COc1ccc(-c2ncc3c(n2)CCN(S(=O)(=O)c2cccc(Cl)c2C)C3)cc1` belongs 1180 s; to `CCc1cccc(NC(=O)c2cc(C)n3nccc3n2)c1`, 1030 s.

Turning to `Cc1noc(C)c1CCC(=O)N1CCCn2ccnc2C1C(C)C` (stereo not given), the RP-LC retention time came to 590 s.
